Laboratory results published in patent US6395526B1, “DNA polymerase” (Takara Shuzo Co., Ltd., priority 1995, dated 2002).
“Also recorded” adds a separate entry of the source.

Key:
Assay type in all cases: biochemical
[1] = test system: M13-HT Primer; assay: Primer extension reaction (autoradiogram, FIG. 6); details: for inhibition of primer extension by activated DNA as competitor substrate: activated DNA added in great excess
Method: The primer extension activity was further investigated extensively. The M13-HT Primer, previously labeled with [γ-^32P]-ATP (manufactured by Amersham) and T4 polynucleotide kinase (manufactured by Takara Shuzo Co., Ltd.) at the 5′-end, was used as a substrate. Ten microliters of a reaction mixture [20 mM Tris-HCl (pH 7.7), 15 mM MgCl2, 2 mM 2-mercaptoethanol, 270 μM each of dATP, dGTP, dCTP and dTTP] containing the above substrate in a final concentration of […] and various DNA polymerases in amounts providing 0.05 units of activity as assayed with the activated DNA as a substrate was reacted at 75° C. for 1, 2, 3, or 4 minutes. After termination of the reaction, 2 μl of a reaction stop solution (95% […], 20 mM EDTA, 0.05% bromophenol blue, 0.05% xylenecyanol) was added, subjected to thermal denaturation treatment at 95° C. for 3 minutes. Two microliters of the reaction mixture was then subjected to electrophoresis using polyacrylamide gel containing 8 M urea and subsequently subjected to a preparation of autoradiogram. Also, in order to examine the extension activity in the presence of the activated DNA as a competitor substrate, the activated DNA was added to the above reaction mixture to a final concentration of […], and subjected to a preparation of an autoradiogram by the same procedures as described above.
In the figure, Pol, Pfu, and Taq show the results for the DNA polymerase of the present invention, the Pfu DNA polymerase and the Taq DNA polymerase, respectively. In addition, 1, 2, 3, and 4 each indicates reaction time (min). In the figure, the representation “−” and “+” show the results obtained in the absence and in the presence, respectively, of the activated DNA. The lanes G, A, T, and C at the left end of the figure also show the results of electrophoresis of the reaction products obtained by a chain termination reaction by the dideoxy method using the same substrate as above, which were used to estimate the length of each extension product.

[2] = test system: gapped duplex plasmid (pUC118 vector); assay: Accuracy of DNA synthesis reaction (white colony formation); details: 0.5 units DNA polymerase, 70° C. for 10 minutes
Method: The accuracy of DNA synthesis reaction by DNA polymerases was examined using a pUC118 vector (manufactured by Takara Shuzo Co., Ltd.), partially made single stranded (gapped duplex plasmid, as a template. The single stranded pUC118 vector was prepared by the method described in Molecular Cloning: A Laboratory Manual, 2nd ed., 4.44-4.48, published by Cold Spring Harbor Laboratory in 1989, edited by T. Maniatis et al., using a helper phage M13KO7 (manufactured by Takara Shuzo Co., Ltd.) with Escherichia coli MV1184 (manufactured by Takara Shuzo Co., Ltd.) as a host. The double stranded DNA was prepared by digesting the pUC118 vector with PvuII (manufactured by Takara Shuzo Co., Ltd.), subjecting the digested vector to agarose gel electrophoresis, and recovering a DNA fragment of about 2.8 kbp.
One microgram of the above single stranded DNA and 2 μg of the double stranded DNA were mixed to make 180 μl of a mixture with sterile distilled water, and the solution was then incubated at 70° C. for 10 minutes. Thereafter, twenty microliters of 20×SSC was added to the resulting mixture, and the mixture was further kept standing at 60° C. for 10 minutes. The DNA was recovered by subjecting to ethanol precipitation. […] The white or blue colonies formed on the plate were counted, and the formation rate of white colonies which were resulted from a DNA synthesis error was calculated.

[3] = test system: λ-DNA; assay: PCR with λ-DNA as a template
Method: In order to compare the performance of the DNA polymerase of the present invention in PCR with that of the Taq DNA polymerase, PCR was carried out with λ-DNA as a template. The reaction mixture for the DNA polymerase of the present invention had the following composition: 10 mM Tris-HCl (pH 9.2), 3.5 mM MgCl2, 75 mM KCl, 400 μM each of dATP, dCTP, dGTP and dTTP, 0.01% bovine serum albumin (BSA), and 0.1% Triton X-100. The reaction solution for the Taq DNA polymerase had the following composition: 10 mM Tris-HCl (pH 8.3), 1.5 mM MgCl2, 50 mM KCl, and 400 μM each of dATP, dCTP, dGTP and dTTP. Fifty microliters of a reaction mixture containing 5.0 ng/50 μl λ-DNA (manufactured by Takara Shuzo Co., Ltd.), 10 pmol/50 μl each of primer λ1 and primer λ11, and 3.7 units/50 μl DNA polymerase was prepared. The base sequences of the primer λ1 and the primer λ11 are shown by SEQ ID NO:8 and SEQ ID NO:9 in Sequence Listing, respectively. After, a 30-cycle PCR was carried out with the above reaction mixture, wherein one cycle is defined at 98° C. for 10 seconds and at 68° C. for 10 seconds. Five microliters of the reaction mixture was subjected to agarose gel electrophoresis, and the amplified DNA fragment was confirmed by staining with ethidium bromide.
The experiment was then carried out by changing the primer to the primer λ1 and the primer λ10. The base sequence of the primer λ10 is shown by SEQ ID NO:10 in Sequence Listing. Twenty-five microliters of a reaction mixture having a similar composition to that shown above and containing 2.5 ng of λ-DNA, 10 pmol of the primer λ1 and the primer λ10, respectively, and 3.7 units of DNA polymerase was prepared. The reaction mixture was reacted in 5 cycles under the same reaction conditions as those described above, and 5 μl of the reaction mixture was subjected to agarose gel electrophoresis and stained with ethidium bromide.

[4] = primer λ1 and primer λ10, 5 cycles

Row | Substance | primer extension activity ([1]; M13-HT Primer, 75° C., 1-4 min, compared with Pfu and Taq DNA polymerases) | inhibition of primer extension by activated DNA as competitor substrate [1] | white colony formation rate (DNA synthesis error) [2] [%] | length of DNA fragment amplified by PCR [3, 4] | length of DNA fragment amplified by PCR ([3]; primer λ1 and primer λ11, 30 cycles, enzyme used alone)
1 | DNA Polymerase of the Present Invention: complex of first (ORF3, SEQ ID NO:2) and second (ORF4, SEQ ID NO:4) DNA polymerase-constituting proteins from Pyrococcus furiosus | superior primer extension activity | unlikely to be inhibited; also recorded: inhibited at a low level | 1.61 | about 15 kbp | –
2 | Taq DNA Polymerase: Taq DNA polymerase derived from Thermus aquaticus (TaKaRa Taq, manufactured by Takara Shuzo Co., Ltd.) [reference compound] | – | markedly inhibited; also recorded: strongly inhibited | 3.18 | no specific amplification was observed | not found
